The results in this text go back to US20240368173A1, “TRICYCLIC GPR65 MODULATORS” (PATHIOS THERAPEUTICS LIMITED, priority 2021, published 2024).

Some results are limits rather than exact numbers.

The target in one assay is human recombinant GPR65 (Homo sapiens, UniProt Q8IYL9). The assay can be described thus: Human GPR65 cAMP HTRF antagonist assay. In kind it is cell-based.
Sequence of human recombinant GPR65 (Q8IYL9 whole entry): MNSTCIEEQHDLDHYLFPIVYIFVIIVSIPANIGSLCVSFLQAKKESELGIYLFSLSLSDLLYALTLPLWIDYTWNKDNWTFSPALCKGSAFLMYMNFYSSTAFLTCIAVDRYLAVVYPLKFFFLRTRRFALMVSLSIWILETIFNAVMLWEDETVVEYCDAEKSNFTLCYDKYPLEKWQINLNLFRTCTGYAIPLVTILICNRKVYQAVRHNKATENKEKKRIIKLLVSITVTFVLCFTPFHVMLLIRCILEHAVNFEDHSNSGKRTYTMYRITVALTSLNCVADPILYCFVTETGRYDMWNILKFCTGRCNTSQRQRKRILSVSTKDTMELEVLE
Settings: not given
An excerpt:
In one preferred embodiment, the compound prevents the increase in cytoplasmic cAMP levels expected following GPR65 activation at acidic pH. This prevention of cAMP accumulation in turn prevents downstream signalling through ICER, as described above. The “Human GPR65 cyclic adenosine monophosphate (cAMP) Homogeneous Time Resolved Fluorescence (HTRF) antagonist assay”, or simply “cAMP assay”, as described in the accompanying examples, can be used to measure the potency of GPR65 modulators, which is expressed as the concentration of compound required to reduce the increase in cAMP concentration upon GPR65 activation by 50% (i.e. an IC50).
Human GPR65 Cyclic Adenosine Monophosphate (cAMP) Homogeneous Time Resolved Fluorescence (HTRF) Antagonist Assay Procedure
IC50 data was obtained by the following procedure:
1321N1 human astrocytoma cells stably expressing human recombinant GPR65 (1321N1-hrGPR65 cells, EuroscreenFast) were cultured according to the vendor's instructions.
Compounds were tested for their ability to antagonise GPR65, through measuring the concentration of cytoplasmic cAMP following treatment of the cells at a pH of 7.2 to activate GPR65 signalling and addition of the compound to be tested. The extent to which the expected rise in cAMP concentration upon GPR65 activation was suppressed by the added compound is indicative of its potency. The assay was carried out according to EuroscreenFast assay Methodology as follows.
On the day of the assay, test compounds were added to 384-well, low volume, white microtiter plates by acoustic dispensing. KRH buffer (5 mM KCl, 1.25 mM MgSO4, 124 mM NaCl, 25 mM HEPES, 13.3 mM Glucose, 1.25 mM KH2PO4 and 1.45 mM CaCl2) was adjusted to pH 6.5, pH 7.6 and pH 8.4 by adding NaOH. 1321N1-hGPR65 cells were rapidly thawed and diluted in KRH, pH 7.6 prior to centrifugation at 300×g for 5 min and resuspension in assay buffer (KRH, pH 7.6, supplemented with 1 mM 3-isobutyl-1-methylxanthine (IBMX) and 200 μM ethylenediaminetetraacetic acid (EDTA)). Cells were added to assay plates at a density of 2,000 cells per well in a volume of 5 μl. Assay plates were briefly centrifuged at 100×g and then incubated at room temperature for 30 min. Cells were stimulated by the addition of 5 μL KRH, pH 6.5, to achieve an assay pH of 7.2, while control wells received 5 μl KRH, pH 8.4 to achieve an assay pH of 7.9. Assay plates were briefly centrifuged at 100×g and then incubated at room temperature for 30 min.
Accumulation of cAMP was detected by cAMP HTRF kit (Cisbio). d2-labeled cAMP and cryptate-labeled anti-cAMP antibody in Lysis and Detection Buffer (Cisbio) were added to assay plates, and the plates were incubated at room temperature for 1 h. HTRF measurements were performed using a Pherastar FSX instrument. Acceptor and donor emission signals were measured at 665 nm and 620 nm, respectively, and HTRF ratios were calculated as signal665 nm/signal620 nm×10^4. Data were normalised to high and low control values and fitted with 4-parameter logistic regression to determine hGPR65 IC50 values for the test compounds, which are shown in Table 1.
On to `N#Cc1nccc2c1C[C@@H]1CC[C@H]2N1C(=O)Nc1cc(Cl)c(Cl)cc1F` [Compound 92, (5R,8S)-1-Cyano-N-(4,5-dichloro-2-fluorophenyl)-6,7,8,9-tetrahydro-5H-5,8-epiminocyclohepta[c]pyridine-10-carboxamide], for which the IC50 was less than 500 nM. Turning to `CC(C)Oc1cc(-c2cc(F)c(NC(=O)N3[C@H]4CC[C@@H]3c3n[nH]c(=O)cc3C4)cc2Cl)ccn1` [Compound 218, (6S,9R)-N-(5-Chloro-2-fluoro-4-(2-isopropoxypyridin-4-yl)phenyl)-3-oxo-3,5,6,7,8,9-hexahydro-2H-6,9-epiminocyclohepta[c]pyridazine-10-carboxamide], the IC50 is less than 500 nM. On to `O=C(Nc1cc(-c2cncc(F)c2)c(C(F)(F)F)cc1F)N1[C@H]2CC[C@@H]1c1n[nH]c(=O)cc1C2` [Compound 257, (6S,9R)-N-(2-Fluoro-5-(5-fluoropyridin-3-yl)-4-(trifluoromethyl)phenyl)-3-oxo-3,5,6,7,8,9-hexahydro-2H-6,9-epiminocyclohepta[c]pyridazine-10-carboxamide], for which the IC50 was less than 500 nM. Turning to `CC(C)Oc1ccc(NC(=O)N2[C@H]3CC[C@@H]2c2ccnc(F)c2C3)cc1Cl` [Compound 70, (5R,8S)-N-(3-Chloro-4-isopropoxyphenyl)-1-fluoro-6,7,8,9-tetrahydro-5H-5,8-epiminocyclohepta[c]pyridine-10-carboxamide], the IC50 is less than 500 nM.

Take `O=C(Nc1cc(Br)c(Cl)cc1F)N1[C@H]2CC[C@@H]1c1n[nH]c(=O)cc1C2` [Compound 37, (6S,9R)-N-(5-Bromo-4-chloro-2-fluorophenyl)-3-oxo-3,5,6,7,8,9-hexahydro-2H-6,9-epiminocyclohepta[c]pyridazine-10-carboxamide]: the 50% inhibitory concentration (IC50) is less than 500 nM. For the compound `O=C(Nc1ccc(Cl)c(Br)c1)N1[C@H]2CC[C@@H]1c1n[nH]c(=O)cc1C2` [Compound 49, (6S,9R)-N-(3-Bromo-4-chlorophenyl)-3-oxo-3,5,6,7,8,9-hexahydro-2H-6,9-epiminocyclohepta[c]pyridazine-10-carboxamide], the IC50 was less than 500 nM. `N#Cc1cc(F)c(NC(=O)N2[C@H]3CC[C@@H]2c2n[nH]c(=O)cc2C3)cc1Cl` [Compound 111, (6S,9R)-N-(5-Chloro-4-cyano-2-fluorophenyl)-3-oxo-3,5,6,7,8,9-hexahydro-2H-6,9-epiminocyclohepta[c]pyridazine-10-carboxamide]: the IC50 is less than 500 nM. With `CN1CCc2cc(-c3cc(F)c(NC(=O)N4[C@H]5CC[C@@H]4c4n[nH]c(=O)cc4C5)cc3Cl)ccc2C1=O` [Compound 175, (6S,9R)-N-(5-Chloro-2-fluoro-4-(2-methyl-1-oxo-1,2,3,4-tetrahydroisoquinolin-6-yl)phenyl)-3-oxo-3,5,6,7,8,9-hexahydro-2H-6,9-epiminocyclohepta[c]pyridazine-10-carboxamide], the IC50 is less than 500 nM.

As to `O=C(Nc1cc(Cl)c(-c2cc(F)cnc2F)cc1F)N1[C@H]2CC[C@@H]1c1ccnc(F)c1C2` [Compound 260, (5R,8S)-N-(5-Chloro-4-(2,5-difluoropyridin-3-yl)-2-fluorophenyl)-1-fluoro-6,7,8,9-tetrahydro-5H-5,8-epiminocyclohepta[c]pyridine-10-carboxamide], the IC50 is less than 500 nM. As to `O=C(Nc1ccc(Br)c(C(F)(F)F)c1)N1C2CCC1c1n[nH]c(=O)cc1C2` (racemic) [Compound 10, (±)-N-(4-Bromo-3-(trifluoromethyl)phenyl)-3-oxo-3,5,6,7,8,9-hexahydro-2H-6,9-epiminocyclohepta[c]pyridazine-10-carboxamide], the IC50 was less than 500 nM. With `COc1ncc(-c2cc(F)c(NC(=O)N3[C@H]4CC[C@@H]3c3c[nH]c(=O)cc3C4)cc2Cl)cc1F` [Compound 217, (6S,9R)-N-(5-Chloro-2-fluoro-4-(5-fluoro-6-methoxypyridin-3-yl)phenyl)-3-oxo-3,5,6,7,8,9-hexahydro-2H-6,9-epiminocyclohepta[c]pyridine-10-carboxamide], the IC50 was less than 500 nM. The same measure, in the same setting: the value for `O=C(Nc1cc(Cl)c(C(F)(F)F)cc1F)N1[C@H]2CC[C@@H]1c1ccnnc1C2` [Compound 85, (5R,8S)-N-(5-Chloro-2-fluoro-4-(trifluoromethyl)phenyl)-6,7,8,9-tetrahydro-5H-5,8-epiminocyclohepta[c]pyridazine-10-carboxamide] was less than 500 nM; that for `O=C(Nc1cc(Cl)c(-c2cnc3nonc3c2)cc1F)N1[C@H]2CC[C@@H]1c1n[nH]c(=O)cc1C2` [Compound 165, (6S,9R)-N-(4-([1,2,5]Oxadiazolo[3,4-b]pyridine-6-yl)-5-chloro-2-fluorophenyl)-3-oxo-3,5,6,7,8,9-hexahydro-2H-6,9-epiminocyclohepta[c]pyridazine-10-carboxamide] was less than 500 nM; that for `O=C(Nc1cc(Cl)c(-c2ccc(N3CCC3)nc2)cc1F)N1[C@H]2CC[C@@H]1c1n[nH]c(=O)cc1C2` [Compound 341, (6S,9R)-N-(4-(6-(Azetidin-1-yl)pyridin-3-yl)-5-chloro-2-fluorophenyl)-3-oxo-3,5,6,7,8,9-hexahydro-2H-6,9-epiminocyclohepta[c]pyridazine-10-carboxamide] was less than 500 nM. On to `O=C(Nc1cc(Cl)c(-c2ccc(OC(CF)CF)nc2)cc1F)N1[C@H]2CC[C@@H]1c1n[nH]c(=O)cc1C2` [Compound 307, (6S,9R)-N-(5-Chloro-4-(6-((1,3-difluoropropan-2-yl)oxy)pyridin-3-yl)-2-fluorophenyl)-3-oxo-3,5,6,7,8,9-hexahydro-2H-6,9-epiminocyclohepta[c]pyridazine-10-carboxamide], for which the IC50 is less than 500 nM.

The same assay, now with this note: 1321N1-hrGPR65 cells, cAMP HTRF, assay pH 7.2; read-out: hGPR65 IC50 (Activity of selected compounds according to the invention).
For the compound `COc1ccc2c(n1)C[C@@H]1CC[C@H]2N1C(=O)Nc1cc(Cl)c(Cl)cc1F` [Compound 54, (5R,8S)-N-(4,5-Dichloro-2-fluorophenyl)-2-methoxy-6,7,8,9-tetrahydro-5H-5,8-epiminocyclohepta[b]pyridine-10-carboxamide], the IC50 was more than 5000 nM. In the case of `O=C(Nc1cc(Cl)c(-c2cnccn2)cc1F)N1[C@H]2CC[C@@H]1c1n[nH]c(=O)cc1C2` [Compound 271, (6S,9R)-N-(5-Chloro-2-fluoro-4-(pyrazin-2-yl)phenyl)-3-oxo-3,5,6,7,8,9-hexahydro-2H-6,9-epiminocyclohepta[c]pyridazine-10-carboxamide], the IC50 lay in the range of 500 to 5000 nM. Consider `O=C1NCCc2cc(-c3cc(F)c(NC(=O)N4[C@H]5CC[C@@H]4c4n[nH]c(=O)cc4C5)cc3Cl)ccc21` [Compound 151, (6S,9R)-N-(5-Chloro-2-fluoro-4-(1-oxo-1,2,3,4-tetrahydroisoquinolin-6-yl)phenyl)-3-oxo-3,5,6,7,8,9-hexahydro-2H-6,9-epiminocyclohepta[c]pyridazine-10-carboxamide], for which the IC50 was more than 5000 nM. Take `O=C(Nc1cc(Cl)c(Cl)cc1F)N1[C@H]2CC[C@@H]1c1c(C#CCO)cnc(F)c1C2` [Compound 107, (5R,8S)—N-(4,5-Dichloro-2-fluorophenyl)-1-fluoro-4-(3-hydroxyprop-1-yn-1-yl)-6,7,8,9-tetrahydro-5H-5,8-epiminocyclohepta[c]pyridine-10-carboxamide]: the IC50 is 500 to 5000 nM. Regarding `O=C(Nc1cc(Cl)c(C(F)(F)F)cc1F)N1[C@@H]2CC[C@H]1c1c[nH]c(=O)nc1C2` [Compound 25, (5S,8R)-N-(5-Chloro-2-fluoro-4-(trifluoromethyl)phenyl)-2-oxo-3,5,6,7,8,9-hexahydro-2H-5,8-epiminocyclohepta[d]pyrimidine-10-carboxamide], the IC50 lay within 500 to 5000 nM.

Turning to `O=C(Nc1cc(Cl)c(Br)cc1F)N1[C@@H]2CC[C@H]1c1n[nH]c(=O)cc1C2` [Compound 33, (6R,9S)-N-(4-Bromo-5-chloro-2-fluorophenyl)-3-oxo-3,5,6,7,8,9-hexahydro-2H-6,9-epiminocyclohepta[c]pyridazine-10-carboxamide], the IC50 was more than 5000 nM.
